# Experimental data taken from PMC10830684, “Effect of Oregon grape root extracts on P-glycoprotein mediated transport in in vitro cell lines” (Journal of Pharmacy & Pharmaceutical Sciences, 2024).
# Key:
# [1] = system: MDCKII wild-type cells; test: Effect on 3H-CsA and 3H-digoxin transport in MDCKII wild-type cells; settings: MDCKII-WT; for Papp (B to A) of 3H-CsA: 0.5 µM 3H-CsA; for Papp (B to A) of 3H-digoxin: 0.5 µM 3H-digoxin
# [2] = system: P-gp; design: method as in PMID 12434406; settings: Caco-2 cells; seven day pretreatment; 30 µM; cited from earlier work
# [3] = system: MDCKII wild-type cells; test: MTT cytotoxicity assay in MDCKII wild-type cells; type: cell-based, Canine; settings: MDCKII-WT cells, 4 hours exposure
# From the text: (§1) We initiated cytotoxicity experiments with the Caco-2, MDCKII-MDR1 and MDCKII-wild type cells on Day 7 (Caco-2) and Day 4 (MDCKII-MDR1 and MDCKII-wild type) after the initial plating of the cells at 2.5 × 10^3 cells/well in 48-well plates (Becton Dickinson, Franklin Lakes, NJ, USA). See details of preparation for the cytotoxicity experiments in Supplementary Material.
# We initiated cytotoxicity experiments with the Caco-2, MDCKII-MDR1 and MDCKII-wild type cells on Day 7 (Caco-2) and Day 4 (MDCKII-MDR1 and MDCKII-wild type) after the initial plating of the cells at 2.5x10^3 cells/well in 48-well plates (Becton Dickinson, Franklin Lakes, NJ, USA). Stock solutions of 10 mM berberine or berbamine were prepared by dissolving the compounds in DMSO (berberine) or distilled water (berbamine). […] The final concentration of DMSO was 0.003% (v/v), 0.03% (v/v), 0.3% (v/v), 1% (v/v), 1.5% (v/v), and 3% (v/v) DMSO/culture medium for 0.3 μM, 3 μM, 30 μM, 100 μM, ,150 μM, and 300 μM, respectively. The final concentration of ethanol was 0.15% (v/v) ethanol/culture medium. Ketoconazole (75 µM) was used as a positive control and no treatment (medium alone) was used as a negative control for each experiment.
# (§2) The LDH enzymatic activities were assayed using the method of Mitchell et al.(1). […] Enzyme leakage into the medium was expressed as the percentage of total cellular LDH. The MTT (3-(4,5-dimethythiazole-2yl)-2,5-diphenyl tetrazolium bromide) reduction assay was done according to Mosmann (2). This assay was conducted immediately with the same cells used in the LDH study. The results were expressed as the percentage of negative controls.
# [4] = system: Caco-2 cells; test: MTT cytotoxicity assay in Caco-2 cells; type: cell-based, human; settings: for MTT assay: 4 hours exposure
# From the text: as §1
# We initiated cytotoxicity experiments with the Caco-2, MDCKII-MDR1 and MDCKII-wild type cells on Day 7 (Caco-2) and Day 4 (MDCKII-MDR1 and MDCKII-wild type) after the initial plating of the cells at 2.5x10^3 cells/well in 48-well plates (Becton Dickinson, Franklin Lakes, NJ, USA). Stock solutions of 10 mM berberine or berbamine were prepared by dissolving the compounds in DMSO (berberine) or distilled water (berbamine).
# as §2
# [5] = biological target: P-glycoprotein (MDCKII-MDR1 cells) (Homo sapiens, UniProt P08183); test: Effect on 3H-CsA and 3H-digoxin transport in MDCKII-MDR1 cells; settings: for Papp (B to A) of 3H-CsA: 0.5 µM 3H-CsA; for Papp (B to A) of 3H-digoxin: 0.5 µM 3H-digoxin
# Sequence of P-glycoprotein (MDCKII-MDR1 cells) (P08183 whole entry): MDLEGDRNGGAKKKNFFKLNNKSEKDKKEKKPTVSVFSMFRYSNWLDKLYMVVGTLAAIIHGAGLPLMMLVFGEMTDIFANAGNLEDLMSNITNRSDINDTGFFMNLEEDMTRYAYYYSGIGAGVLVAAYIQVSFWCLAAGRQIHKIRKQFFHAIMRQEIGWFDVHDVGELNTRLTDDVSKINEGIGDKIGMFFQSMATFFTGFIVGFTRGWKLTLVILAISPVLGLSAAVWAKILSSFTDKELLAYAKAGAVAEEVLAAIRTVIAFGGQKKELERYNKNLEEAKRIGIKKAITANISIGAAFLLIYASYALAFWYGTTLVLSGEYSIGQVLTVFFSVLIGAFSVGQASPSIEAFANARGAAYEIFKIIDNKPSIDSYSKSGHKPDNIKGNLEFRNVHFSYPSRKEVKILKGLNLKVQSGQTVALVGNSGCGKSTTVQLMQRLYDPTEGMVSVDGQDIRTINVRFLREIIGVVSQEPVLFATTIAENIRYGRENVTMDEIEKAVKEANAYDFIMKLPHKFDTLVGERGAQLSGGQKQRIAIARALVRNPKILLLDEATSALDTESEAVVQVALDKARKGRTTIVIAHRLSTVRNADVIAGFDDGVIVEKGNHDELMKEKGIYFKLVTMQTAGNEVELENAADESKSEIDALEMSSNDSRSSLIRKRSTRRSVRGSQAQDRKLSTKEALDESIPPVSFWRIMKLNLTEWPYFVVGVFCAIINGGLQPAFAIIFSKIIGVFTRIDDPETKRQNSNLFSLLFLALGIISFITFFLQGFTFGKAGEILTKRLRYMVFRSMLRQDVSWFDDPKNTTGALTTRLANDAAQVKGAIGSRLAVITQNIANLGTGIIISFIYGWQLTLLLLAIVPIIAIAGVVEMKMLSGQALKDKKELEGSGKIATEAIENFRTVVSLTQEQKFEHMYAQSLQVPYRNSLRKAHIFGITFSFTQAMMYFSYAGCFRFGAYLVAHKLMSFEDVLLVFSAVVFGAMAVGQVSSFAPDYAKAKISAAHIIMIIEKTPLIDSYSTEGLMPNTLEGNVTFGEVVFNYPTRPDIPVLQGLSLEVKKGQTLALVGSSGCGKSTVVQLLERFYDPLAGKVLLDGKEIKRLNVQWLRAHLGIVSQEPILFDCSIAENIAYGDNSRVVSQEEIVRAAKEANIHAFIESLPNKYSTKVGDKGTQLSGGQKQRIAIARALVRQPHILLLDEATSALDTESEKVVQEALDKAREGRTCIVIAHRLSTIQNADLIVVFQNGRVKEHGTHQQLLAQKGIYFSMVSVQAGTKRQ
compound,measurement,setting,value
"COc1ccc2cc3[n+](cc2c1OC)CCc1cc2c(cc1-3)OCO2.[Cl-] [Berberine, Berberine chloride]",Papp (B to A) of 3H-CsA,[1]; 10 µM compound,4.07 ± 0.56 x 10^−6 cm/s
same,Papp (B to A) of 3H-digoxin,[1]; 10 µM compound,7.55 ± 0.46 x 10^−6 cm/s
same,Papp (B to A) of 3H-CsA,[1]; 30 µM compound,4.34 ± 0.29 x 10^−6 cm/s
same,Papp (B to A) of 3H-digoxin,[1]; 30 µM compound,6.95 ± 0.71 x 10^−6 cm/s
same,increase of the efflux of daunomycin,[2],1.4 fold
same,MTT assay,[3]; 0.03 µM,□ (%MTT reduction is not significantly decreased compared with the negative control)
same,MTT assay,[3]; 3.0 µM,□ (%MTT reduction is not significantly decreased compared with the negative control)
same,MTT assay,[3]; 100 µM,□ (%MTT reduction is not significantly decreased compared with the negative control)
same,MTT assay,[3]; 150 µM,□ (%MTT reduction is not significantly decreased compared with the negative control)
same,MTT assay,[3]; 300 µM,24.82 ± 15.91%
same,MTT assay,[4]; 0.03 µM,□ (%MTT reduction is not significantly decreased compared with the negative control)
same,MTT assay,[4]; 3.0 µM,□ (%MTT reduction is not significantly decreased compared with the negative control)
same,MTT assay,[4]; 100 µM,□ (%MTT reduction is not significantly decreased compared with the negative control)
same,MTT assay,[4]; 150 µM,76.37 ± 2.13%
same,earliest time of significant increase in LDH leakage and decrease in MTT reduction,"[4]; 150 µM, time-response 2, 4, 6, 8 hr, data not shown",4 h
same,MTT assay,[4]; 300 µM,58.25 ± 6.37%
same,MTT assay,"[4]; 300 µM, listed as berberine",58.25 ± 9.24%
same,Papp (B to A) of 3H-CsA,[5]; 10 µM compound,5.34 ± 1.56 x 10^−6 cm/s
same,Papp (B to A) of 3H-digoxin,[5]; 10 µM compound,1.56 ± 0.43 x 10^−6 cm/s
same,Papp (B to A) of 3H-CsA,[5]; 30 µM compound,5.17 ± 0.92 x 10^−6 cm/s
same,Papp (B to A) of 3H-digoxin,[5]; 30 µM compound,1.57 ± 0.81 x 10^−6 cm/s
